Source: PubChem BioAssay (NCI)
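Exposure lasted 48 hours, with cells grown in 96-well plates and compounds tested at five concentrations. Here, GI50 denotes the concentration required for 50% inhibition of growth. TGI: concentration producing complete growth inhibition.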

Assays:
Test in all cases: NCI tumour cell line growth inhibition, 48 h
786-0 renal = test system: 786-0 renal
DU-145 prostate = test system: DU-145 prostate
OVCAR-3 ovarian = test system: OVCAR-3 ovarian
PC-3 prostate = test system: PC-3 prostate
SNB-19 CNS = test system: SNB-19 CNS
UO-31 renal = test system: UO-31 renal
CAKI-1 renal = test system: CAKI-1 renal
HL-60(TB) leukemia = test system: HL-60(TB) leukemia
NCI-H226 lung = test system: NCI-H226 lung
OVCAR-4 ovarian = test system: OVCAR-4 ovarian

SMILES | TGI (786-0 renal) [µM] | TGI (DU-145 prostate) [µM] | TGI (OVCAR-3 ovarian) [µM] | TGI (PC-3 prostate) [µM] | TGI (SNB-19 CNS) [µM] | TGI (UO-31 renal) [µM] | TGI (CAKI-1 renal) [µM] | TGI (HL-60(TB) leukemia) [µM] | TGI (NCI-H226 lung) [µM] | TGI (OVCAR-4 ovarian) [µM] | GI50 (786-0 renal) [µM] | GI50 (DU-145 prostate) [µM] | GI50 (HL-60(TB) leukemia) [µM] | GI50 (NCI-H226 lung) [µM] | GI50 (OVCAR-3 ovarian) [µM] | GI50 (OVCAR-4 ovarian) [µM] | GI50 (PC-3 prostate) [µM] | GI50 (UO-31 renal) [µM] | GI50 (CAKI-1 renal) [µM] | GI50 (SNB-19 CNS) [µM]
O=C1c2ccccc2-c2cc3ccccc3c(=O)n21 | > 100 | > 100 | > 100 | > 100 | > 100 | > 100 | – | – | – | – | – | – | – | – | – | – | – | – | – | –
O=C(CCCCCCCCCCc1ccccc1)c1c(O)cccc1O | 32.3 | – | 63.1 | – | 41.3 | 38.7 | 74.8 | 71.6 | 41.8 | 57.5 | – | – | – | – | – | – | – | – | – | –
COC(=O)[C@H](Cc1ccccc1)NC(=O)c1csc([C@@H](C[C@H](C(C)C)N(C)C(=O)[C@@H](NC(=O)[C@H]2CCCCN2C)C2CC2)OC(C)=O)n1 | > 25 | > 25 | 0.063 | > 25 | > 25 | > 25 | – | 0.193 | > 25 | > 25 | 0.064 | 0.0218 | 0.0137 | 2.59 | 0.0102 | 1.62 | 0.0509 | 0.258 | – | –
COc1ccc(C[C@H]2C[C@@H](O)[C@@H](C)C/C=C/Cc3cccc(O)c3C(=O)O2)cn1 | 77.7 | > 100 | > 100 | – | > 100 | 66.1 | 54.6 | 38.4 | > 100 | 74.1 | 18 | 27.7 | 15.3 | 27.3 | 50.5 | 23.7 | – | 19.9 | 21.8 | 38.9
Cc1nnc2n1N=C(CC(=O)c1ccc(O)cc1O)CN2N | > 100 | – | – | – | > 100 | > 100 | > 100 | > 100 | – | > 100 | – | – | – | – | – | – | – | – | – | –
S=C(Nc1ccccc1)Nc1[nH]c(=S)sc1-c1nc2ccccc2[nH]1 | > 100 | – | > 100 | – | > 100 | > 100 | > 100 | > 100 | 29.4 | 81.2 | – | – | – | – | – | – | – | – | – | –
CC[C@@]1(OC(=O)CN)C(=O)OCc2c1cc1n(c2=O)Cc2cc3cc(N)ccc3nc2-1 | 0.0409 | > 76.5 | 0.848 | > 100 | > 100 | – | 0.0398 | – | 0.388 | 2.7 | < 0.01 | < 0.01 | – | < 0.0152 | 0.181 | 0.363 | 0.0711 | < 0.0113 | < 0.01 | < 0.01
CC[C@]12C=CCN3CC[C@]4(C(=C(C(=O)OC)C1)Nc1cc(O)ccc14)[C@@H]32 | 40.8 | 45.3 | 33.9 | 50.5 | 44.2 | 25.8 | 37.1 | 72.5 | – | 76.4 | 15.7 | 21.7 | 25.8 | – | 17.7 | 22 | 21.2 | 12.9 | 14.1 | 18
O=C1[C@H]2C(c3ccccc3)=NN(C(=O)c3ccccc3)[C@H]2C(=O)N1c1ccccc1 | > 100 | – | > 100 | – | > 100 | > 100 | – | – | > 100 | – | – | – | – | – | – | – | – | – | – | –
O=C(/C=C/N1CCN(c2cccc(C(F)(F)F)c2)CC1)c1ccc(Cl)cc1Cl | 39.8 | > 100 | 19.3 | > 100 | > 100 | > 100 | 41.3 | – | – | 53.2 | 20.8 | 35.1 | – | – | 2.44 | 25.1 | 31.7 | 31.3 | 22.7 | 47.7
CCOC(=O)c1cnc2[nH]c(=O)c3ccccc3n2c1=O | > 100 | – | > 100 | – | > 100 | > 100 | > 100 | > 100 | > 100 | > 100 | – | – | – | – | – | – | – | – | – | –
O=C1OCC(C(=O)c2cccc(O)c2)C1=O (configuration not stated) | > 100 | – | > 100 | – | > 100 | > 100 | > 100 | – | > 100 | > 100 | – | – | – | – | – | – | – | – | – | –
COc1cc2ccn3c4cc(OC)c(OC)cc4cc3c2cc1OC | > 100 | – | > 100 | – | > 100 | > 100 | > 100 | > 100 | > 100 | > 100 | – | – | – | – | – | – | – | – | – | –
CC(CC(=O)O)(CC(=O)O)C(=O)O | > 100 | > 100 | > 100 | > 100 | > 100 | > 100 | > 100 | – | – | > 100 | – | – | – | – | – | – | – | – | – | –
O=C(CCCCCCCCC(=O)OCC1OC(n2cnc3c(=O)[nH]cnc32)C(O)C1O)OCC1OC(n2cnc3c(=O)[nH]cnc32)C(O)C1O (configuration not stated) | > 100 | – | > 100 | – | > 100 | > 100 | > 100 | > 100 | > 100 | > 100 | – | – | – | – | – | – | – | – | – | –
CC1=C(C#N)C(N)=C2C(C)=C(C#N)C(N)=C12 | > 100 | – | > 100 | – | > 100 | > 100 | > 100 | > 100 | > 100 | > 100 | – | – | – | – | – | – | – | – | – | –
COC(=O)/C(C#N)=C1\N=NNN1CCCN1CCOCC1 | > 100 | – | > 100 | – | > 100 | > 100 | > 100 | – | > 100 | – | – | – | – | – | – | – | – | – | – | –
Oc1cc2cc(-c3ccccc3)[nH]c2c2ccccc12 | > 100 | – | > 61.4 | – | > 70.2 | > 92.6 | 90.8 | > 100 | > 100 | > 100 | – | – | – | – | – | – | – | – | – | –
CC(C)OP(=O)(CP(=O)(OC(C)C)OC(C)C)OC(C)C.[CH3][Sn]([Br])([Br])[Br] | > 100 | – | > 100 | – | > 100 | > 100 | > 100 | > 100 | > 100 | – | > 100 | – | > 100 | > 100 | > 100 | – | – | > 100 | > 100 | > 100
Brc1ccc2c(c1)C1(c3cc(Br)ccc3-2)c2cc(Br)ccc2-c2ccc(Br)cc21 | > 100 | – | > 100 | – | > 100 | > 100 | > 100 | > 100 | > 100 | > 100 | – | – | – | – | – | – | – | – | – | –
